Assay [1] deals with T1, Neprilysin (Rattus norvegicus, UniProt P07861).
T1 sequence (P07861 whole entry): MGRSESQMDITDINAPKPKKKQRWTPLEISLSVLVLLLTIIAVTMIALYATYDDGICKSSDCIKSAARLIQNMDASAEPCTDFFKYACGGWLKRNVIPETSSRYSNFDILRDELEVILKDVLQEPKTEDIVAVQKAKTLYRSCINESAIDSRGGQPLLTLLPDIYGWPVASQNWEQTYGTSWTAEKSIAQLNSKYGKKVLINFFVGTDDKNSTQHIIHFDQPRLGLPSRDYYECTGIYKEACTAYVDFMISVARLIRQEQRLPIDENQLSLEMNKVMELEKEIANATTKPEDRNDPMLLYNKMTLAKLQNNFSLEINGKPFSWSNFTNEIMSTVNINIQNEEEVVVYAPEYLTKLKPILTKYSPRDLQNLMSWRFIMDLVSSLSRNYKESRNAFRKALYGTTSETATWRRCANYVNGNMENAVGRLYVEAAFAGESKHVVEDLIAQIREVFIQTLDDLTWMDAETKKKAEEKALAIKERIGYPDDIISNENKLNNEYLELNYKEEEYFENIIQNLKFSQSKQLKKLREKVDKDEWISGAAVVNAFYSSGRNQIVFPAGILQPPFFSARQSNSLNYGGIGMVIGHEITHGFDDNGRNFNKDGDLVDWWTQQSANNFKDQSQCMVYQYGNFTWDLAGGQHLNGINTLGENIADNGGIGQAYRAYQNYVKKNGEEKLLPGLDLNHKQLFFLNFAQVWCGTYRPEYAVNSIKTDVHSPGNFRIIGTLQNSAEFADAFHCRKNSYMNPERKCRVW
Nature of the assay: Inhibition of Neutral endopeptidase.

For assay [2], the target named is T2, Angiotensin-converting enzyme (Oryctolagus cuniculus, UniProt P12822).
T2 sequence (P12822 whole entry): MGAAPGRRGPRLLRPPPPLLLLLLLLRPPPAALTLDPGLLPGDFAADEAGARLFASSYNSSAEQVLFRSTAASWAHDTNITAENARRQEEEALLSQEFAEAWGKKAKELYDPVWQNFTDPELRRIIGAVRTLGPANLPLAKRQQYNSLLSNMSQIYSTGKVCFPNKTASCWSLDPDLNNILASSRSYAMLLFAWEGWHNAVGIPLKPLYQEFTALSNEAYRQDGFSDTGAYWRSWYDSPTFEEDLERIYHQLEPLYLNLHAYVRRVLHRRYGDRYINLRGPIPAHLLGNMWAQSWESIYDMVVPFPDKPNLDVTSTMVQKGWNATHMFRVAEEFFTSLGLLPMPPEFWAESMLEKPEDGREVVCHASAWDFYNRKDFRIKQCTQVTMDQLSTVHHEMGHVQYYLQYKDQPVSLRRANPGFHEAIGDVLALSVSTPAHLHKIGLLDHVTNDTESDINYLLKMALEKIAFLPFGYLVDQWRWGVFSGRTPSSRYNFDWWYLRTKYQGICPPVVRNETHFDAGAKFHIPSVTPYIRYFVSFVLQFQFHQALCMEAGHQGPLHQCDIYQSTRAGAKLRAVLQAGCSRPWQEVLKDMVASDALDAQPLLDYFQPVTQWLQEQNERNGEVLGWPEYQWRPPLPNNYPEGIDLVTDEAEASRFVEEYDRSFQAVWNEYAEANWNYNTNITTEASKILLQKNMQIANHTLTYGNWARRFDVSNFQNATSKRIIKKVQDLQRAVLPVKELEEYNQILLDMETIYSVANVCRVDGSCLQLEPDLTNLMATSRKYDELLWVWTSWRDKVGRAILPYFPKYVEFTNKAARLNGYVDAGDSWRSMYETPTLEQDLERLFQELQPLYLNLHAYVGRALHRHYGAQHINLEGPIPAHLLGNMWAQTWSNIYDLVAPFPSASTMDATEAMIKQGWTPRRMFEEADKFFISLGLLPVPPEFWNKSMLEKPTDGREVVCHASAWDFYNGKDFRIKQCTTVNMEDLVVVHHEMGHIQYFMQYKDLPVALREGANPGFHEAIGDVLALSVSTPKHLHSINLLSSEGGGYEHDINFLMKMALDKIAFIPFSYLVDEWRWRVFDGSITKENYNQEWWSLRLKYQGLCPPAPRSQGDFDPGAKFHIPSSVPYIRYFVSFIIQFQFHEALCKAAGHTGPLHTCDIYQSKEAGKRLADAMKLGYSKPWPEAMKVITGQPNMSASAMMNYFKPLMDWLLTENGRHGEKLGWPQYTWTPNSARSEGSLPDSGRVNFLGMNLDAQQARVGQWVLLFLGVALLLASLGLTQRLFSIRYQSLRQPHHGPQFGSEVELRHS
Put plainly: Inhibition of Angiotensin I converting enzyme.

Each structure is given as a SMILES string. pIC50: −log10 of the molar value.

`O=CN(O)C[C@@H](Cc1ccccc1)C(=O)N[C@H]1Cc2ccccc2[C@H]2CCC[C@@H](C(=O)O)N2C1=O`: the values for the pIC50 in assay [1] and in assay [2] were 8.74 and 8.47, respectively.

Turning to `CC(C)C[C@H](NC(=O)[C@H](Cc1ccccc1)N(O)C=O)C(=O)N[C@@H](Cc1ccccc1)C(=O)O`, the pIC50 in assay [1] was 4.03; in assay [2] it was 3.64.

In the case of `CC(C)C[C@H](NC(=O)C(Cc1ccccc1)CN(O)C=O)C(=O)N[C@@H](Cc1ccccc1)C(=O)O` (stereo not given in full), the pIC50 in assay [1] was 5.90; in assay [2], 6.97.

Take `CC(C)C[C@H](NC(=O)C(Cc1ccccc1)CN(O)C(N)=O)C(=O)N[C@@H](Cc1ccccc1)C(=O)O` (stereo not given in full): the results for the negative logarithm of the IC50 (pIC50) in assay [1] and in assay [2] were 3.15 and 3.28, respectively.

With `CC(=O)N(O)CC(Cc1ccccc1)C(=O)N[C@@H](CC(C)C)C(=O)N[C@@H](Cc1ccccc1)C(=O)O` (stereo not given in full), the figures for the pIC50 in assay [1] and in assay [2] were 3.67 and 3.34, respectively.

`CC1(C)CCC[C@H](NC(=O)[C@H](Cc2ccccc2)CN(O)C=O)C(=O)N1CC(=O)O`: the results for the pIC50 in assay [1] and in assay [2] were 7.74 and 8.27, respectively.

Take `CC(C)[C@H](NCP(=O)(O)O)C(=O)N[C@@H](Cc1ccc(-c2ccccc2)cc1)C(=O)O`: the pIC50 in assay [1] was 8.52; in assay [2] it was 7.60.

Turning to `O=CN(O)C[C@@H](Cc1ccccc1)C(=O)N[C@H]1CCc2ccccc2N(CC(=O)O)C1=O`, the results for the pIC50 in assay [1] and in assay [2] were 8.89 and 8.28, respectively.

Take `O=C(N[C@H]1CCS[C@H]2CCC[C@@H](C(=O)O)N2C1=O)[C@@H](S)Cc1ccccc1` [OMAPATRILAT]: the negative logarithm of the IC50 (pIC50) is 8.05 in assay [1] and 8.22 in assay [2].

Take `CS(=O)(=O)N[C@@H](CCCCN)C(=O)NC[C@H](CC1(C(=O)N[C@@H](Cc2ccc(O)cc2)C(=O)O)CCCC1)C(=O)O` [SAMPATRILAT]: the pIC50 is 7.70 in assay [1] and 8.15 in assay [2].

By pIC50 is commonly meant the negative decadic logarithm of the IC50, by convention in mol/L. The low end stands for a large IC50, the high end for a small IC50.

The values above are taken from ChEMBL document CHEMBL1133150, “N-formyl hydroxylamine containing dipeptides: generation of a new class of vasopeptidase inhibitors” (Bioorg Med Chem Lett, 2000).
